System: paclitaxel-induced peripheral nerve disorder rats
Assay: Repeated intraperitoneal administration, hyperalgesia by paclitaxel (von Frey test)
Assay type: in vivo, rat
Details: prophylactic i.p. 0.50 mg/kg/day, paclitaxel; male SD rats
Experimental: With regard to male SD rats of six weeks age used as the experimental animals, their 50% reaction threshold values to the mechanical stimulus (the measuring method will be mentioned later) and body weights were measured and then the following seven groups each comprising eight rats was organized. • Normal control group • Onset control group • Prophylactic administration group with 0.25 mg/kg/day of a test drug • Prophylactic administration group with 0.50 mg/kg/day of a test drug • Therapeutic administration group with 0.25 mg/kg/day of a test drug • Therapeutic administration group with 0.50 mg/kg/day of a test drug • Therapeutic administration group with 30 mg/kg/day of gabapentin (positive control)
Taxol (registered trademark) injection 30 mg (manufactured by Bristol-Myers Squibb) containing 6 mg/mL of paclitaxel was used. To the rats of each of the above groups except the normal control group was intraperitoneally administered paclitaxel diluted to 2 mg/mL with saline in a dose of 2 mg/kg four times every other day whereupon the paclitaxel-induced peripheral nerve disorder rats were prepared. To the normal control group, an equivalent mixture of ethanol and Cremophor EL (registered trademark; manufactured by Sigma; a solvent for Taxisol (registered trademark) injection) diluted with saline to an extent of 3-fold was administered similarly.
To prophylactic administration groups of a test drug, the compound 4 in a dose of 0.25 mg/kg/day or 0.50 mg/kg/day was repeatedly administered intraperitoneally since immediately after initiation of administration of paclitaxel until 13 days thereafter. Meanwhile, to therapeutic administration groups of a test drug and to a therapeutic administration group of gabapentin, the compound 4 in a dose of 0.25 mg/kg/day or 0.50 mg/kg/day or gabapentin in a dose of 30 mg/kg/day, respectively was repeatedly administered intraperitoneally during the period of from 14 days to 42 days after initiation of the administration of paclitaxel.
The seven groups of rats of the above (1) were placed in a transparent acrylic cage with a wire-meshed floor and habituated for about three minutes and the 50% reaction threshold values to the mechanical stimulus of right hind limb were measured after 3, 7, 14, 21, 28, 35 and 42 days from initiation of the administration of paclitaxel. Incidentally, during the period of administration of a test drug, its values were measured after 24 hours from the last administration of a test drug.
The measurement was conducted using von Frey filaments (manufactured by North Coast Medical Inc.) in accordance with the methods of Chaplan, et al. (Journal of Neuroscience Methods, vol. 53, no. 1, pages 55 to 63, 1994) and Dixon, et al. (Annual Review of Pharmacology and Toxicology, vol. 20, pages 441 to 462, 1980). […] The case where the rat escaped at the instance of removing the filament was also called positive. When the positive reaction was noted, stimulus was conducted similarly using a filament of one rank weaker while, when no reaction was noted, stimulus was conducted similarly using a filament of one rank stronger and the point when the reaction changed from negative to positive or from positive to negative was called the first two reactions. […] A 50% reaction threshold value to the mechanical stimulus was measured using the reaction to the six stimuli in total and then (mean value) ± (standard error) for each group was calculated. […]

Compound	50% reaction threshold values to the mechanical stimulus vs onset control group
CCCCCCC/C=C/C(=O)O [trans-2-decenoic acid, reference compound]	no difference from the onset control group

System: paclitaxel-induced peripheral nerve disorder rats
Assay: Single intraperitoneal administration, hyperalgesia induced by paclitaxel (von Frey test)
Assay type: in vivo
Details: Rattus norvegicus, ip, single i.p. dose 0.3 mg/kg, higher of the values after 1 hour and 5 hours, read-out: Recovery rate of 50% reaction threshold value (%)
Experimental: Male SD rats in six weeks age (one group comprised six rats) were used as experimental animals and the paclitaxel-induced peripheral nerve disorder rats were prepared in the same manner as in the above 1.[1](2). The test drug was administered intraperitoneally in a single dose so as to make it 0.3 mg/kg in any of the cases during the period of 18 to 25 days or 20 to 27 days after initiation of administration of paclitaxel.
A von Frey test was conducted in the same manner as in the above 1.[1](4) using the rats mentioned in the above (1) and each 50% reaction threshold value was measured. With regard to the higher 50% reaction threshold value between the 50% reaction threshold values after 1 hour and 5 hours from administration of a test drug, a recovery rate (%) of the 50% reaction threshold value was calculated.
Recovery rate (%) of 50% reaction threshold value={[(50% reaction threshold value after 1 hour or 5 hours from administration of test drug)−(50% reaction threshold value before administration of test drug)]÷[(Normal threshold value)−(50% reaction threshold value before administration of test drug)]}×100

Compound	inhibition in vivo at 0.3 mg/kg [%]
CCCCCC/C=C/CC(=O)OCC [Compound 20, Trans-3-decenoic acid ethyl ester]	14.7
CCCCCCCCCC(=O)OCC [Compound 2, Decanoic acid ethyl ester]	22.9
CCCCCCC/C=C/C(=O)OCCCC [Compound 7, Trans-2-decenoic acid butyl ester]	22.7
CCCCCCC/C=C/C(=O)OC(C)C [Compound 6, Trans-2-decenoic acid isopropyl ester]	10.2
CCCCCCC/C=C/C(=O)OC(C)(C)C [Compound 10, Trans-2-decenoic acid tert-butyl ester]	50
CCCCCCC/C=C/C(=O)OC1CCCCC1 [Compound 18, Trans-2-decenoic acid cyclohexyl ester]	15.8
C=CCCCCCCCC(=O)OCC [Compound 22, Trans-9-decenoic acid ethyl ester]	67.9
CCCCCCC/C=C/C(=O)OC [Compound 3, Trans-2-decenoic acid methyl ester]	63.2
CCCCCCC/C=C/C(=O)OCCCCCCC [Compound 12, Trans-2-decenoic acid heptyl ester]	21.3
CCCCCCC/C=C/COC(=O)/C=C/CCCCCCC [Compound 16, Trans-2-decenoic acid trans-2-decenyl ester]	94.4
CCCCCCC/C=C/C(=O)OCCC [Compound 5, Trans-2-decenoic acid propyl ester]	71.2
C=CCCCCCCCCOC(=O)/C=C/CCCCCCC [Compound 17, Trans-2-decenoic acid trans-9-decenyl ester]	54
CCCCCCC/C=C/C(=O)OCCCCCC [Compound 11, Trans-2-decenoic acid hexyl ester]	60.8
CCCCCCC/C=C/C(=O)OCCCCCCCCCC [Compound 14, Trans-2-decenoic acid decyl ester]	32.2

From patent US20130296425A1, “PROPHYLACTIC OR THERAPEUTIC AGENT FOR A PERIPHERAL NERVE DISORDER INDUCED BY ANTI-CANCER AGENTS” (NAGOYA INDUSTRIAL SCIENCE RESEARCH INSTITUTE, priority 2011, published 2013)
